Laboratory results published in patent publication US20230381328A1, “COMPOUND FOR THE PREVENTION OR TREATMENT OF MYASTHENIA GRAVIS” (ABLEVIA BIOTECH GMBH, priority 2020, published 2023).

Tested on: myasthenogenic antibody mAB 198
Assay: Peptide microarray mimotope screen, binding of mAB 198 to linear and cyclic peptides (fluorescence readout)
Design: species or system rat
Details: binding of mAB 198, relative fluorescent signal after normalization against background
Excerpt: A custom peptide array of 30000 peptides was synthesized, with peptides of 7-19 amino acids in size; the peptides were based on substitution analyses of 176 AChR-MIR peptides with exchanges of each amino acid positions by each of the 20 common amino acids. Peptides were synthesized directly on a microarray, and screened with monoclonal antibody mAB 198 in order to obtain mimotopes with a binding strength which was improved over the human AChR alpha chain MIR-containing sequence […] (Tzartos et al, 1991; Luo et al, 2009) and over a previously published mimotope sequence ([…]), that was derived from Torpedo AchR with the help of antibody mAB 132A (Trinh et al, 2014). In particular, the wild type AChR-MIR sequence is known to structurally mimic to a certain extent the epitope recognized by myasthenogenic, unwanted and disease-causing antibodies from patients. The mimotope peptide library was designed by permutation of each single amino acid position of these two sequences with all natural amino acids in order to provide a maximally diversified collection of peptide variants. All peptides were synthesized in doublets as linear and as cyclic peptides. The aim was to obtain peptides (mimotopes) that mimic the natural epitope of myasthenogenic antibodies.
For the mimotope screen, the antibody mAB 198 (Absolute Antibody Ltd, UK) was used. This is a prototype antibody that was generated in rats using human AChR (Tzartos et al, 1983; Asher et al, 1993). […] Therefore, mAB198 was used as a surrogate probe to screen for new mimotopes that are capable of mimicking the corresponding AChR-MIR epitope or portions of the epitope.
As a readout, binding of mAB 198 to the 30000 linear and cyclic peptides was measured by fluorescence readout, and peptides were ranked according to their relative fluorescent signal after normalization against the background.
The top-ranked 100 linear and cyclic mimotopes are listed in Table 1 and Table 2 above, respectively.

relative signal [%] (linear mimotopes) | relative signal [%] (cyclic mimotopes) | Substance
11.0 | – | 49 (SLRINPADY) [compound 49]
11.0 | – | 50 (RLYWNPADY) [compound 50]
10.9 | – | 51 (QWVDYNLKFNP) [compound 51]
10.6 | – | 52 (GGGSLRRNPAD) [compound 52]
10.6 | – | 53 (LRWNPADYGGF) [compound 53]
10.6 | – | 54 (SLRWNPADYHG) [compound 54]
10.3 | – | 55 (NPADYDG) [compound 55]
10.0 | – | 56 (DVRLRFNPADY) [compound 56]
9.9 | – | 57 (RRNPADY) [compound 57]
9.5 | – | 58 (RPNPADY) [compound 58]
9.5 | – | 59 (GSLRRNPAD) [compound 59]
9.4 | – | 60 (WNPADYH) [compound 60]
9.4 | – | 61 (RWNPADYGH) [compound 61]
9.3 | – | 62 (GSLRFNPAD) [compound 62]
9.2 | – | 63 (LRINPAD) [compound 63]
9.0 | – | 64 (WRLRWNPAD) [compound 64]
8.9 | – | 65 (GNPADYGGI) [compound 65]
8.9 | – | 66 (RHNPADY) [compound 66]
8.8 | – | 67 (WNPDDYGHV) [compound 67]
8.6 | – | 68 (RPNPADYGG) [compound 68]
8.5 | – | 69 (DVRLRINPADY) [compound 69]
8.3 | – | 70 (YNLKYNP) [compound 70]
8.1 | – | 71 (GGGSLRFNPAD) [compound 71]
8.1 | – | 72 (VRHRWNPAD) [compound 72]

relative signal [%] (linear mimotopes) | relative signal [%] (cyclic mimotopes) | Substance
8.0 | – | 73 (NPADYGI) [compound 73]
7.9 | – | 74 (IDVRLRFNPAD) [compound 74]
7.7 | – | 75 (NPDDYGH) [compound 75]
7.6 | – | 76 (VPLRWNPAD) [compound 76]
7.6 | – | 77 (YNLPWNP) [compound 77]
7.6 | – | 78 (VDYNLKFNP) [compound 78]
7.4 | – | 79 (HWNPADY) [compound 79]
7.2 | – | 80 (RTNPADY) [compound 80]
7.2 | – | 81 (LRWNPADYHGI) [compound 81]
7.1 | – | 82 (GGGSLRYNP) [compound 82]
6.9 | – | 83 (RLRGNPADY) [compound 83]
6.9 | – | 84 (RGNPADY) [compound 84]
6.8 | – | 85 (VDCNLKFNP) [compound 85]
6.8 | – | 86 (DVRLRWNPSDY) [compound 86]
6.8 | – | 87 (RIRWNPADY) [compound 87]
6.7 | – | 88 (HRLRWNPAD) [compound 88]
6.7 | – | 89 (SLRVNPADY) [compound 89]
6.7 | – | 90 (CNLKYNP) [compound 90]
6.6 | – | 91 (HSLRWNPAD) [compound 91]
6.5 | – | 92 (NPADYGN) [compound 92]
6.5 | – | 93 (LRWNPADYPGI) [compound 93]
6.5 | – | 94 (RLRYNPADY) [compound 94]
6.5 | – | 95 (SLRFNPADY) [compound 95]
6.4 | – | 96 (QWVDCNLKFNP) [compound 96]

relative signal [%] (linear mimotopes) | relative signal [%] (cyclic mimotopes) | Substance
6.1 | – | 97 (LRPNPADYG) [compound 97]
6.1 | – | 98 (VDCNLKYNP) [compound 98]
6.0 | – | 99 (ALRWNPADY) [compound 99]
6.0 | – | 100 (NPADYGV) [compound 100]
– | 100.0 | 101 (VRLRWNPADYP) [compound 101]
– | 61.3 | 102 (RLRVNPADY) [compound 102]
– | 45.1 | 103 (LRVNPADYG) [compound 103]
– | 43.2 | 104 (WIDVRLRGNPA) [compound 104]
– | 42.3 | 105 (RLNPADY) [compound 105]
– | 37.5 | 106 (RFNPADY) [compound 106]
– | 37.3 | 107 (RLRLNPADY) [compound 107]
– | 32.7 | 108 (RLRGNPADY) [compound 108]
– | 31.4 | 109 (DVRLRINPADY) [compound 109]
– | 30.2 | 110 (DVRLRVNPADY) [compound 110]
– | 28.9 | 111 (RINPADY) [compound 111]
– | 28.6 | 112 (LRLNPADYG) [compound 112]
– | 28.2 | 113 (LRRNPAD) [compound 113]
– | 28.0 | 114 (SLRINPADY) [compound 114]
– | 27.7 | 115 (DVRLRFNPADY) [compound 115]
– | 27.4 | 116 (NPADYRG) [compound 116]
– | 26.5 | 117 (SLRVNPADY) [compound 117]
– | 25.5 | 118 (RLRINPADY) [compound 118]

Second part, the substance before the results:

Substance | relative signal [%] (linear mimotopes) | relative signal [%] (cyclic mimotopes)
1 (LRRNPAD) [compound 1] | 100.0 | –
2 (NPADYRG) [compound 2] | 71.4 | –
3 (NPADYHG) [compound 3] | 59.3 | –
4 (VRLRWNPADYP) [compound 4] | 56.7 | –
5 (LRGNPAD) [compound 5] | 48.0 | –
6 (WNPADYR) [compound 6] | 40.6 | –
7 (LRFNPAD) [compound 7] | 37.1 | –
8 (GSLRYNP) [compound 8] | 34.4 | –
9 (LRVNPADYG) [compound 9] | 31.6 | –
10 (LRRNPADYG) [compound 10] | 28.3 | –
11 (VRLRFNP) [compound 11] | 27.1 | –
12 (VRLRYNP) [compound 12] | 26.3 | –
13 (LRLNPAD) [compound 13] | 25.2 | –
14 (VRLRRNPAD) [compound 14] | 25.0 | –
15 (RFNPADY) [compound 15] | 21.8 | –
16 (GSLRFNP) [compound 16] | 21.6 | –
17 (NPDDYHG) [compound 17] | 21.3 | –
18 (NPADYGY) [compound 18] | 21.2 | –
19 (WNPADYP) [compound 19] | 20.5 | –
20 (RLHWNPADY) [compound 20] | 20.2 | –
21 (QWIDVRLRFNP) [compound 21] | 20.1 | –
22 (NPADYPG) [compound 22] | 19.8 | –
23 (NPADYGH) [compound 23] | 18.1 | –
24 (RLNPADY) [compound 24] | 17.7 | –

Substance | relative signal [%] (linear mimotopes) | relative signal [%] (cyclic mimotopes)
25 (LRLNPADYG) [compound 25] | 17.3 | –
26 (LLGGGSLRFNP) [compound 26] | 16.7 | –
27 (RYNPADY) [compound 27] | 16.5 | –
28 (LRYNPAD) [compound 28] | 15.9 | –
29 (LHWNPAD) [compound 29] | 15.7 | –
30 (LRWNPADYH) [compound 30] | 15.3 | –
31 (IDVRLRFNP) [compound 31] | 15.0 | –
32 (RLRVNPADY) [compound 32] | 14.9 | –
33 (NPADYGD) [compound 33] | 14.1 | –
34 (WNPADYGHI) [compound 34] | 13.7 | –
35 (YNLKFNP) [compound 35] | 13.7 | –
36 (SLHWNPADY) [compound 36] | 13.6 | –
37 (QWIDVRLRYNP) [compound 37] | 13.4 | –
38 (RGNPADYGG) [compound 38] | 13.0 | –
39 (GGGSLRFNP) [compound 39] | 13.0 | –
40 (LRINPADYG) [compound 40] | 12.6 | –
41 (RWNPADF) [compound 41] | 12.6 | –
42 (RLRWNPADYHG) [compound 42] | 12.4 | –
43 (IDVRLRYNP) [compound 43] | 12.2 | –
44 (RINPADY) [compound 44] | 12.2 | –
45 (NPADYGR) [compound 45] | 12.2 | –
46 (RLRFNPADY) [compound 46] | 11.4 | –
47 (WNPDDYR) [compound 47] | 11.4 | –
48 (CNLKFNP) [compound 48] | 11.0 | –
